These compounds were tested against BuChE (Homo sapiens, UniProt P06276) (assay: biochemical). Conditions: not given.
BuChE, sequence (P06276 29-602): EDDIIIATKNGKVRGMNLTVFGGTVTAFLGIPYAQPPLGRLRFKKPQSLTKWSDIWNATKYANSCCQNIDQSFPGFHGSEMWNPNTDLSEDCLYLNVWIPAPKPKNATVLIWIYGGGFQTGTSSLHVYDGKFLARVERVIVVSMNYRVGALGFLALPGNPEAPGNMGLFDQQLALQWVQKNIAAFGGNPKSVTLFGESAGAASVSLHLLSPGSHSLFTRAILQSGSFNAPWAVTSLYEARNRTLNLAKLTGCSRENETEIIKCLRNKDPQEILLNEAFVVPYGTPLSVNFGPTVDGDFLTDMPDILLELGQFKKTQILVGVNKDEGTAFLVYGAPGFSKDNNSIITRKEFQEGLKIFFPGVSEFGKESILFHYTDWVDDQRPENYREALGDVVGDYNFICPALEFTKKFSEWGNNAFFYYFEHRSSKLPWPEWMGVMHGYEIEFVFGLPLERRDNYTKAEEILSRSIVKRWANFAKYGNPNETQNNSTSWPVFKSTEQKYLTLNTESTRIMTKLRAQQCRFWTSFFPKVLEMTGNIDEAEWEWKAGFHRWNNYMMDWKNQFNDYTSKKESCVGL
With COc1c2ccoc2cc2oc(-c3ccccc3)cc(=O)c12 [CY2, pinnatin] the IC50 was 82 ± 1.3 µM.
In the case of COc1c(C(=O)/C=C(\O)c2ccccc2)ccc2occc12 [CY3, pongamol], the IC50 is reported as 102 ± 1.27 µM.

What follows are compounds tested against Aβ1–42 (Homo sapiens, UniProt P05067) (assay: biochemical). Conditions: Aβ aggregation (IC50), Aβ1-42, ThT, 37 °C 48 h, compounds 0–200 μM.
Aβ1–42, sequence (P05067 672-713): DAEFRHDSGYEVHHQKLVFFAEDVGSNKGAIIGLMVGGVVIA
With COc1c2ccoc2cc2oc(-c3ccccc3)cc(=O)c12 [CY2, pinnatin] the IC50 was 195 ± 3.2 µM.
With COc1c(C(=O)/C=C(\O)c2ccccc2)ccc2occc12 [CY3, pongamol] the IC50 was over 200 µM.
In the case of O=c1cc(-c2ccccc2)oc2c1ccc1occc12 [CY14, lanceolatin B], the IC50 is reported as 106 µM.

These compounds were tested on differentiated SH-SY5Y cells (assay: Toxicity screening on differentiated SH-SY5Y cells). Conditions: 0.1 μM, MTT, mean ± SD (n = 5).
Type: cell-based, human
Compound COc1c2ccoc2cc2oc(-c3ccccc3)cc(=O)c12 [CY2, pinnatin] has a Cell viability of 96.7 ± 3.1 % control.
COc1c(C(=O)/C=C(\O)c2ccccc2)ccc2occc12 [CY3, pongamol] gave a Cell viability of 103.3 ± 1.4 % control.
O=c1cc(-c2ccccc2)oc2c1ccc1occc12 [CY14, lanceolatin B] was tested, and the Cell viability was 102.4 ± 1.3 % control.
For COc1cc(/C=C/C(=O)CC(=O)/C=C/c2ccc(O)c(OC)c2)ccc1O [Curcumin, reference compound], the Cell viability was 104.1 ± 3.2 % control.

Same assay, conditions: 1 μM, MTT, mean ± SD (n = 5)
Compound COc1c2ccoc2cc2oc(-c3ccccc3)cc(=O)c12 [CY2, pinnatin] has a Cell viability of 99.3 ± 4.7 % control.
With COc1c(C(=O)/C=C(\O)c2ccccc2)ccc2occc12 [CY3, pongamol] the Cell viability was 103.6 ± 1.1 % control.
Work on O=c1cc(-c2ccccc2)oc2c1ccc1occc12 [CY14, lanceolatin B] yielded a Cell viability of 100.1 ± 2.6 % control.
In the case of COc1cc(/C=C/C(=O)CC(=O)/C=C/c2ccc(O)c(OC)c2)ccc1O [Curcumin, reference compound], the Cell viability is reported as 100.4 ± 4.6 % control.

Same assay, conditions: 10 μM, MTT, mean ± SD (n = 5)
Compound COc1c2ccoc2cc2oc(-c3ccccc3)cc(=O)c12 [CY2, pinnatin] has a Cell viability of 96.1 ± 4.3 % control.
With COc1c(C(=O)/C=C(\O)c2ccccc2)ccc2occc12 [CY3, pongamol] the Cell viability was 104.3 ± 3.8 % control.
Work on O=c1cc(-c2ccccc2)oc2c1ccc1occc12 [CY14, lanceolatin B] yielded a Cell viability of 97.4 ± 3.2 % control.
COc1cc(/C=C/C(=O)CC(=O)/C=C/c2ccc(O)c(OC)c2)ccc1O [Curcumin, reference compound] gave a Cell viability of 100.5 ± 7.7 % control.

Same assay, conditions: 100 μM, MTT, mean ± SD (n = 5)
With COc1c2ccoc2cc2oc(-c3ccccc3)cc(=O)c12 [CY2, pinnatin] the Cell viability was 68.5 ± 2.2 % control.
Work on COc1c(C(=O)/C=C(\O)c2ccccc2)ccc2occc12 [CY3, pongamol] yielded a Cell viability of 103.1 ± 4.0 % control.
For O=c1cc(-c2ccccc2)oc2c1ccc1occc12 [CY14, lanceolatin B], the Cell viability was 72.4 ± 3.4 % control.
COc1cc(/C=C/C(=O)CC(=O)/C=C/c2ccc(O)c(OC)c2)ccc1O [Curcumin, reference compound] was tested, and the Cell viability was 79.1 ± 3.6 % control.
